The text below walks through data of patent publication US5332736A, “Anti-convulsant aroyl aminoacylpyrroles” (Ortho Pharmaceutical Corporation, priority 1993, dated 1994).

The experiment relates to toxic extensor seizure. In words: maximal electroshock test (MES), mouse; block of the toxic extensor seizure (Swinyard 1952 method). It counts as in vivo. Particulars: ip. The source says: The compound of formula (I) are useful as anticonvulsant agents. The anticonvulsant activity of the subject compounds was determine using a standard "maximal electroshock test" (MES). In this test, activity is indicated by a block of the toxic extensor seizure, as described by Swinyard et al in J. Pharmacol,. Exptl. Therap. 106, 319 (1952). A more recent description of current anticonvulsant drug screening is given in Swinyard et al., in Epilepsia 19, 409 (1978).
(Protection in the maximal electroshock model is a classic sign of anticonvulsant action.)

Structures are written as SMILES.

One may read the ED50 as the dose that gives a 50% effect, or the effect in half of the subjects. A lower ED50 goes with greater potency. In the case of `Cn1cc(C(=O)CN2CCCCC2)cc1C(=O)c1ccc(Cl)cc1` [Example 9-1], the 50% effective dose (ED50) amounted to 24.4 mg/kg.
Turning to `Cc1c(C(=O)CN2CCOCC2)c(C)n(C)c1C(=O)c1ccc(Cl)cc1` [Example 9-2], the ED50 worked out at 87.6 mg/kg.
In turn, `CCN(CC)CC(=O)c1cc(C(=O)c2ccc(Cl)cc2)n(C)c1` [Example 9-4] gave an ED50 of 14.4 mg/kg.
Take `Cc1c(C(=O)CN2CCCC2)c(C)n(C)c1C(=O)c1ccc(Cl)cc1` [Example 9-5]: the ED50 is 15.2 mg/kg. This ED50 and that of the compound before are within 1.5-fold of each other.
In turn, `Cn1cc(C(=O)CN2CCCCC2)cc1C(=O)c1ccccc1Cl` [Example 9-10] returned an ED50 of 5.38 mg/kg.
For the compound `Cn1cc(C(=O)CN2CCCCCC2)cc1C(=O)c1ccc(Cl)cc1` [Example 9-11], it took a dose of 27.5 mg/kg to reach the 50% effect level (ED50).
The compound `Cn1cc(C(=O)CN2CCCC2)cc1C(=O)c1cccc(Cl)c1` [Example 9-24] returned a median effective dose (ED50) of 16.5 mg/kg.
`Cn1cc(C(=O)CN2CCOCC2)cc1C(=O)c1cccc(Cl)c1` [Example 9-25] yielded a 50% effective dose (ED50) of 37.4 mg/kg.
`O=C(CN1CCOCC1)c1c[nH]c(C(=O)c2ccc(Cl)cc2)c1` [Example 9-27] came in with a 50% effective dose (ED50) of 86.2 mg/kg. Against the preceding compound, the ED50 is about 2.3-fold higher.
The same measure for `CCN(CC)CC(=O)c1cc(C(=O)c2ccc(OC)cc2)n(C)c1` [Example 9-29]: 33 mg/kg; for `Cn1cc(C(=O)CN2CCCC2)cc1C(=O)c1ccc(Cl)cc1` [Example 9-30]: 49.1 mg/kg.
Compound `CCN(CC)CC(=O)c1c(C)c(C(=O)c2ccc(Cl)cc2)n(C)c1C` [Example 9-32] yielded a 50% effective dose (ED50) of 10.3 mg/kg.
The result for `CCN(CC)CC(=O)c1c(C)c(C(=O)c2ccc(Cl)cc2Cl)n(C)c1C` [Example 9-34] reads 14.9 mg/kg.
